The text below walks through data of US20240270715A1, “INHIBITORS OF TRANSGLUTAMINASES” (ZEDIRA GMBH, priority 2021, published 2024).

Where two headings read alike, the source gives them in different places.

In series [1] the test system is Caco-2 barrier. The series is described as follows: Caco-2 permeability assay (CacoReady kit). The format is in vitro ADME. In a few lines: (§1)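 Papp values come from Caco-2 barrier studies intended to predict oral bioavailability; the manufacturer's procedure for the ready-made kit was followed.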
Background: Passage across Caco-2 layers is used to estimate intestinal permeability.

The nature of series [2]: Log D by shake flask method (octanol / PBS pH 7.4, HPLC). The format is physicochemical. The following applies: octanol / PBS pH 7.4, shake flask. In a few lines: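 Shake-flask partitioning of compound between octanol and PBS at pH 7.4, with phase concentrations quantified by HPLC. The value reported is Log D.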
Series [3] addresses T1, recombinant human transglutaminase 2 (Homo sapiens, UniProt P21980).
T1 sequence (P21980 1-687): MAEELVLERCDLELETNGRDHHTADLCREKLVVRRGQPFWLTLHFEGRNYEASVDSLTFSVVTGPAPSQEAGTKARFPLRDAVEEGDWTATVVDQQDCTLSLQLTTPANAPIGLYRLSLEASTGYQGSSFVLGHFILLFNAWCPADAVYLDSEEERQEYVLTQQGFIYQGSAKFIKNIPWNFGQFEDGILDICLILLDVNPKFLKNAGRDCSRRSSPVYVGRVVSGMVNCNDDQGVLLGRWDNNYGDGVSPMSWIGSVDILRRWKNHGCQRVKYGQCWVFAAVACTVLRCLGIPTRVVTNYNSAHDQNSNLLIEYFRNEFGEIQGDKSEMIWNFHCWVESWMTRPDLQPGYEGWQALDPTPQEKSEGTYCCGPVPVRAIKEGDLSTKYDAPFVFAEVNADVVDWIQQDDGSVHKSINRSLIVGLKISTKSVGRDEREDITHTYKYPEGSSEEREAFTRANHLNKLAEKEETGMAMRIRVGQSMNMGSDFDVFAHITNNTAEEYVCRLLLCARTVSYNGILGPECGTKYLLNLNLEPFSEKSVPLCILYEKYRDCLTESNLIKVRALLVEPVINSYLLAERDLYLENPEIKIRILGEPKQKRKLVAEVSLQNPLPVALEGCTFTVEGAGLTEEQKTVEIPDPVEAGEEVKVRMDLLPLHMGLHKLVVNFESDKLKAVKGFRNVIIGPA
Put plainly: Transglutaminase assay: incorporation of dansylcadaverine into dimethylcasein (DCC-assay). Format: biochemical. The method in brief: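 Recombinant human TG2 (10 nM final) incorporates dansylcadaverine (16.7 μM) into N,N-dimethylcasein (4 μM) in Tris-HCl buffer, pH 8.0, with 10 mM CaCl2 and 10 mM glutathione. Fluorescence (λex 330, λem 500 nm) followed 30 min. The slope between 20–30 min gives activity versus DMSO control, and IC50 comes from the concentration–activity plot.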

Series [4] is described as follows: Caco-2 permeability assay (CacoReady kit). Format: in vitro ADME. The following applies: human. In a few lines: as §1
[5] abbreviates: recombinant human TG2 10 nM, dansylcadaverine/dimethylcasein, read-out: IC50 TG2.
Where [6] appears, read: DCC-assay, values in text, read-out: IC50.

In general, Papp refers to the rate of passage across a membrane or cell layer, normalised by area and donor concentration. Higher therefore signals ready permeation. By logD is commonly meant lipophilicity at a set pH, counting ionised and neutral species. As a reminder, the IC50 is the concentration that inhibits the measured activity by half.

Turning to `CCNC(=O)C(=O)CC[C@H](NC(=O)c1ccn(C)n1)C(=O)Nc1cccn(CC(=O)N[C@]23C[C@H]4C5CC6CC4[C@H](C2)C(C6)[C@H]5C3)c1=O` (single isomer, unassigned) [Compound I-80], in series [1], the Papp entry is given as “A (A: Papp < 1 × 10^−6 cm/s)”. In addition, the logD result in series [2] was “B (B: 1 ≤ logD < 3)”.
Consider `CCNC(=O)C(=O)CC[C@H](NC(=O)c1noc(C)n1)C(=O)Nc1cccn(CC(=O)NC23CC(C2)C3)c1=O` [Compound I-116, (S)-N1-(1-(2-(bicyclo[1.1.1]pentan-1-ylamino)-2-oxoethyl)-2-oxo-1,2-dihydropyridin-3-yl)-N6-ethyl-2-(5-methyl-1,2,4-oxadiazole-3-carboxamido)-5-oxohexanediamide], for which the IC50 in series [3] (setting [5]) lay within 600 to 3500 nM. The Papp in series [4] is less than 1 ×10⁻⁶ cm/s. For the same compound, the logD in series [2] (read-out: logD) was less than 1.
The like results for `CCNC(=O)C(=O)CC[C@H](NC(=O)c1csnn1)C(=O)Nc1cccn(CC(=O)NC23CC(C2)C3)c1=O` [Compound I-117, (S)-N1-(1-(2-(bicyclo[1.1.1]pentan-1-ylamino)-2-oxoethyl)-2-oxo-1,2-dihydropyridin-3-yl)-N6-ethyl-5-oxo-2-(1,2,3-thiadiazole-4-carboxamido)hexanediamide] were, in that order, 150 to 600 nM, less than 1 ×10⁻⁶ cm/s and less than 1.
The like results for `CCNC(=O)C(=O)CC[C@H](NC(=O)c1ncns1)C(=O)Nc1cccn(CC(=O)NC23CC(C2)C3)c1=O` [Compound I-118, (S)-N1-(1-(2-(bicyclo[1.1.1]pentan-1-ylamino)-2-oxoethyl)-2-oxo-1,2-dihydropyridin-3-yl)-N6-ethyl-5-oxo-2-(1,2,4-thiadiazole-5-carboxamido)hexanediamide] were, in that order, 150 to 600 nM, less than 1 ×10⁻⁶ cm/s and less than 1.
Consider `CCNC(=O)C(=O)CC[C@H](NC(=O)c1nncs1)C(=O)Nc1cccn(CC(=O)NC23CC(C2)C3)c1=O` [Compound I-119, (S)-N1-(1-(2-(bicyclo[1.1.1]pentan-1-ylamino)-2-oxoethyl)-2-oxo-1,2-dihydropyridin-3-yl)-N6-ethyl-5-oxo-2-(1,3,4-thiadiazole-2-carboxamido)hexanediamide], for which the IC50 in series [3] (setting [5]) lay in the range of 150 to 600 nM. Besides, the Papp in series [4] is less than 1 ×10⁻⁶ cm/s. In addition, the log distribution coefficient (logD) in series [2] (read-out: logD) was less than 1.
Consider `CCNC(=O)C(=O)CC[C@H](NC(=O)c1snnc1C=O)C(=O)Nc1cccn(CC(=O)NC2C3CC4CC(C3)CC2C4)c1=O` (stereo partly drawn) [Compound I-120, (S)-N1-ethyl-5-(4-formyl-1,2,3-thiadiazole-5-carboxamido)-N6-(1-(2-(2-adamantylamino)-2-oxoethyl)-2-oxo-1,2-dihydropyridin-3-yl)-2-oxohexanediamide], for which the IC50 in series [3] (setting [5]) fell in the range of 150 to 600 nM. The Papp in series [4] is less than 1 ×10⁻⁶ cm/s. Moreover, the log distribution coefficient (logD) in series [2] (read-out: logD) is less than 1.
The like results for `CCNC(=O)C(=O)CC[C@H](NC(=O)c1cccnc1)C(=O)Nc1cccn(CC(=O)NC23CC4CC(CC(C4)C2)C3)c1=O` [Compound I-121, (S)-N1-ethyl-N6-(1-(2-(3,5-dimethyladamantane-1-amino)-2-oxoethyl)-2-oxo-1,2-dihydropyridin-3-yl)-5-(nicotinamido)-2-oxohexanediamide] were, in that order, less than 150 nM, less than 1 ×10⁻⁶ cm/s and less than 1.
`CCC(CC)CNC(=O)Cn1cccc(NC(=O)[C@H](CCC(=O)C(=O)NC)NC(=O)c2cncn2C)c1=O` [Ref. 1, reference compound]: the “fold more potent compared to Ref. 4” value in series [3] (ratio of IC50, compare table 1) is “about 15 fold”. For the same compound, in series [3] (setting [5]), the IC50 lay in the range of 600 to 3500 nM. This compound also displayed a Papp in series [4] of less than 1 ×10⁻⁶ cm/s. In series [2] (read-out: logD), the logD was less than 1.
Turning to `CCC(CC)CNC(=O)Cn1cccc(NC(=O)[C@H](CC/C=C/C(=O)OC)NC(=O)c2cncn2C)c1=O` [Ref. 2, reference compound], the “fold more potent compared to Ref. 3” value in series [3] (DCC-assay, ratio of IC50) came out at 80 fold. In addition, the IC50 is 53 nM in series [3] (setting [6]) and less than 150 nM in series [3] (setting [5]). For the same compound, the Papp in series [4] is less than 1 ×10⁻⁶ cm/s. The log distribution coefficient (logD) in series [2] (read-out: logD) fell in the range of 1 to 3.
As to `CCOC(=O)/C=C/CC[C@H](NC(=O)c1cccnc1)C(=O)Nc1ccc(C)n(CC(=O)NCCc2ccccc2)c1=O` [Ref. 3, reference compound], the IC50 in series [3] (setting [6]) is 4270 nM; in series [3] (setting [5]), 3500 to 10000 nM. The same compound displayed a Papp in series [4] of less than 1 ×10⁻⁶ cm/s. Also, in series [2] (read-out: logD), the logD lay in the range of 1 to 3.
For the compound `CCNC(=O)C(=O)CC[C@H](NC(=O)c1cccnc1)C(=O)Nc1cccn(CC(=O)NCCc2ccccc2)c1=O` [Ref. 4, reference compound], in series [3] (setting [5]), the IC50 is 3500 to 10000 nM. This compound also came in with a Papp in series [4] of less than 1 ×10⁻⁶ cm/s. In addition, the logD in series [2] (read-out: logD) was less than 1.
